Patent US6723897B2, “Methods for controlling gibberellin levels” (Monsanto Technology, LLC, priority 1998, dated 2004)

Columns and labels:
Format in all cases: in vivo, Glycine max
[1] = system: transgenic line 719 soybean; assay: Field trial of seed coatings under soil compaction / different soils, GA-deficient soybean; conditions: for Count (emergence) / Dwarfs (number of dwarfs not rescued) / Dwarfs (number not rescued): Line 719
[2] = system: wild-type soybean line A3237; assay: Experiment II second greenhouse test, seed imbibition, wild-type soybean; conditions: 0.25 mg/ml; seeds imbibed 6 hours
Protocol: (The compounds are tested in Experiment I at only one concentration, i.e., 0.25 mg/ml). Test tubes contained […] of ethanol solution per tube. Final volumes are made up to 30 ml with deionized water. After shaking, the treatment solutions (15 ml each) are transferred to each of two 50 ml test tubes. […] Twenty seeds are used in each treatment. Dry seed, ethanol/water-imbibed seed (1% ethanol in water, v/v), and water-imbibed seeds are included as controls. Seeds are imbibed for 6 hours in the test solutions, then planted in bread pans containing Metromix 350 (The Scotts Company, Marysville, Ohio), and covered with 0.5″ Metro-mix. Covered pans are transferred to the greenhouse and subirrigated. Illumination is at a light intensity of 300-400 μmolm^−2s^−1 photosynthetic photon flux; 16 hours light/8 hours dark. Subsequent waterings are also through sub-irrigation until the test is terminated three weeks later. Observations included the number of dwarf, intermediate, and tall plants; plant height; uniformity of rescue; and any visual effects. Digital photographs are also taken.

[3] = system: constitutively GA-deficient transgenic dwarf soybean line 719; assay: Field trial of seed coating application rates, GA-deficient soybean; conditions: seed coating
Protocol: GA3, GA3-3-acetate, GA5, GA9, and GA12 are evaluated in further field trials. […] The objectives of these tests are: 1) to determine if seed coatings, as compared to imbibition, of GA compounds facilitate rescue of constitutively GA-deficient transgenic dwarf soybeans (transgenic lines 719−2 plus 719+17) without causing elongation of wild-type soybeans (line A4922), and 2) to determine the seed treatment rate ranges for each of the selected GA compounds that would provide rescue of constitutively GA-deficient transgenic dwarf soybeans (transgenic lines 719−2 plus 719+17) without causing elongation of wild-type soybeans (line A4922).
Seeds are treated with GA3, GA5, GA9, GA12, and GA3-3-acetate at rates of 0, 0.1, 1, 10, and 100 μg/seed. These GA compounds are applied to the seeds using a Hege 11 seed treater (Hans-Ulrich Hege GmbH & Co., Waldenburg, Germany); 100% acetone is used as the carrier solvent. The amount of liquid introduced into the seed treater is six fluid ounces/100 lbs seed rate. In addition, GA12 is tested at 50 μg/seed. The untreated control (UTC) consisted of dry, untreated seeds. Seeds of constitutively GA-deficient transgenic dwarf soybean line 719 and wild-type A4922 are sown in both light and heavy soil. The planting depth is 0.5 to 1 inch (1.27 to 2.54 cm); watering is via drip irrigation. The experiment is carried out in three repetitions, using 25 seeds/plot (one five foot (152.4 cm) long row) for line 719, and 75 seeds/plot (two eight foot (243.8 cm) rows) for line A4922. Observations included total emergence, number of dwarfs not rescued, uniformity in plant height, average plant height, visual notes, and digital photos.
In all the experiments reported in Tables 17-24, treatments are replicated three times in a randomized block design. Data are analyzed using LSD (least significant difference) 0.05 probability using the PRM 5.0 Statistical Analysis Program (SAS Institute, North Carolina).

[4] = Heavy soil - Loose, target rate 1.0 μg/seed, Table 23
[5] = Heavy soil - Loose, target rate 10.0 μg/seed, Table 23
[6] = Heavy soil - Loose, target rate 40.0 μg/seed, Table 23
[7] = Heavy soil - compacted, target rate 1.0 μg/seed, Table 23
[8] = Heavy soil - compacted, target rate 10.0 μg/seed, Table 23
[9] = Heavy soil - compacted, target rate 40.0 μg/seed, Table 23
[10] = Heavy soil - loose, target rate 40.0 μg/seed, Table 22
[11] = Light soil - Compacted, target rate 40.0 μg/seed, Table 22
[12] = Light soil - Loose, target rate 1.0 μg/seed, Table 24
[13] = Light soil - Loose, target rate 10.0 μg/seed, Table 24
[14] = Light soil - Loose, target rate 40.0 μg/seed, Table 24
[15] = Light soil - compacted, target rate 1.0 μg/seed, Table 24
[16] = Light soil - compacted, target rate 10.0 μg/seed, Table 24
[17] = Light soil - compacted, target rate 40.0 μg/seed, Table 24

In the case of C=C1C[C@]23C[C@H]1CC[C@H]2[C@]1(C)CCC[C@@](C)(C(=O)O)[C@H]1[C@@H]3C(=O)O [GA12], the “Count (emergence)” value [1, 4] is reported as 36.0 ab, the “Dwarfs (number of dwarfs not rescued)” value [1, 4] is reported as 10.0 a and the “Count (emergence)” value [1, 5] is reported as 35.3 abc. The “Dwarfs (number of dwarfs not rescued)” value [1, 5] was 7.0 b, the “Count (emergence)” value [1, 6] was 35.3 abc and the “Dwarfs (number of dwarfs not rescued)” value [1, 6] was 3.3 c. The “Count (emergence)” value [1, 7] was 18.7 ab, the “Dwarfs (number of dwarfs not rescued)” value [1, 7] was 4.0 a and the “Count (emergence)” value [1, 8] was 13.0 b-e. The “Dwarfs (number of dwarfs not rescued)” value [1, 8] was 2.0 b, the “Count (emergence)” value [1, 9] was 22.7 a and the “Dwarfs (number of dwarfs not rescued)” value [1, 9] was 1.3 bc. For the same compound, the “Count (emergence)” value [1, 10] was 35 abc, the “Dwarfs (number of dwarfs not rescued)” value [1, 10] was 3.3 c and the “Count (emergence)” value [1, 11] was 42 a. For the same compound, the “Dwarfs (number of dwarfs not rescued)” value [1, 11] was 3.7 bc, the “Count (emergence)” value [1, 12] was 46.3 a and the “Dwarfs (number not rescued)” value [1, 12] was 17.3 b. The “Count (emergence)” value [1, 13] was 48.3 a, the “Dwarfs (number not rescued)” value [1, 13] was 11.3 c and the “Count (emergence)” value [1, 14] was 46.0 a. For the same compound, the Dwarfs (number not rescued) [1, 14] was 7.7, the “Count (emergence)” value [1, 15] was 40.3 a and the “Dwarfs (number not rescued)” value [1, 15] was 8.3 a. For the same compound, the “Count (emergence)” value [1, 16] was 40.0 ab, the “Dwarfs (number not rescued)” value [1, 16] was 4.3 b and the “Count (emergence)” value [1, 17] was 42.0 a. The “Dwarfs (number not rescued)” value [1, 17] was 3.7 bc, the “rank of potential for rescuing GA-deficient dwarf soybeans without decreasing emergence” value ([1]; based on the last two field trials) was “GA9>GA5>GA3-3-acetate>GA3>GA12” and the “Significant Visual Observations on Line A3237” value [2] was “Short plants”. The “719 Height, cm, Heavy soil” value ([3]; 0.1 μg compound per seed) was 4.0 d-i cm, the “719 Height, cm, Light soil” value ([3]; 0.1 μg compound per seed) was 4.0 g·cm and the “No. 719 Emerged, Heavy soil” value ([3]; 0.1 μg compound per seed) was 20.7 a-d. For the same compound, the “No. 719 Emerged, Light soil” value ([3]; 0.1 μg compound per seed) was 22.3 a, the “No. 719 Not Rescued, Heavy soil” value ([3]; 0.1 μg compound per seed) was 4.3 bc and the “No. 719 Not Rescued, Light soil” value ([3]; 0.1 μg compound per seed) was 6.3 b. The “719 Height, cm, Heavy soil” value ([3]; 1 μg compound per seed) was 3.3 e-i cm, the “719 Height, cm, Light soil” value ([3]; 1 μg compound per seed) was 4.0 g·cm and the “No. 719 Emerged, Heavy soil” value ([3]; 1 μg compound per seed) was 21.0 abc. The “No. 719 Emerged, Light soil” value ([3]; 1 μg compound per seed) was 22.0 a, the “No. 719 Not Rescued, Heavy soil” value ([3]; 1 μg compound per seed) was 5.3 ab and the “No. 719 Not Rescued, Light soil” value ([3]; 1 μg compound per seed) was 3.7 cd. The “719 Height, cm, Heavy soil” value ([3]; 10 μg compound per seed) was 3.0 f-i cm, the “719 Height, cm, Light soil” value ([3]; 10 μg compound per seed) was 2.3 cm·h and the “No. 719 Emerged, Heavy soil” value ([3]; 10 μg compound per seed) was 22.3 ab. For the same compound, the “No. 719 Emerged, Light soil” value ([3]; 10 μg compound per seed) was 21.0 ab, the “No. 719 Not Rescued, Heavy soil” value ([3]; 10 μg compound per seed) was 1.7 def and the “No. 719 Not Rescued, Light soil” value ([3]; 10 μg compound per seed) was 1.7 efg. For the same compound, the “719 Height, cm, Heavy soil” value ([3]; 50 μg compound per seed) was 3.3 e-i cm, the “719 Height, cm, Light soil” value ([3]; 50 μg compound per seed) was 2.3 cm·h and the “No. 719 Emerged, Heavy soil” value ([3]; 50 μg compound per seed) was 23.7 a. For the same compound, the “No. 719 Emerged, Light soil” value ([3]; 50 μg compound per seed) was 22.3 a, the “No. 719 Not Rescued, Heavy soil” value ([3]; 50 μg compound per seed) was 5.0 bc and the “No. 719 Not Rescued, Light soil” value ([3]; 50 μg compound per seed) was 3.0 cde. The “719 Height, cm, Heavy soil” value ([3]; 100 μg compound per seed) was 2.7 ghi cm, the “719 Height, cm, Light soil” value ([3]; 100 μg compound per seed) was 2.0 cm·h and the “No. 719 Emerged, Heavy soil” value ([3]; 100 μg compound per seed) was 20.7 a-d. The “No. 719 Emerged, Light soil” value ([3]; 100 μg compound per seed) was 21.3 ab, the “No. 719 Not Rescued, Heavy soil” value ([3]; 100 μg compound per seed) was 2.0 de and the No. 719 Not Rescued, Light soil ([3]; 100 μg compound per seed) was 1.
